Data on 10 molecules can be found in patent US20120157439A1, “RAF INHIBITOR COMPOUNDS AND METHODS OF USE THEREOF” (GENENTECH, INC., priority 2009, published 2012).

For this assay, the target named is T1, V600E full-length B-Raf (Homo sapiens, UniProt P15056, V600E).
T1 construct: 1 μM FSBA-MEK and 20 nM V600E full-length B-Raf; made in house; host or cells: sf9 insect cells (baculovirus)
Nature of the assay: B-Raf IC50 Assay (B-RAF V600E inhibition assay, Example A). Format: biochemical. In short, it runs like this:
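Full-length V600E B-Raf (20 nM, from Sf9 baculovirus) was preincubated 15 min with 1 μM FSBA-modified wild-type MEK in pH 7.2 Pipes/KCl/MgCl2 buffer, then started with 4 μM ATP plus [γ-33P]ATP. After 60 min at 22 °C, TCA-quenched product was filter-captured and 33P incorporation counted by scintillation.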

The mark [1] stands for this setting: B-Raf V600E assay of Example A: less than 100 nM, read-out: IC50.
The mark [2] stands for this setting: B-Raf V600E assay of Example A: less than about 1 μM, read-out: IC50.
The mark [3] stands for this setting: incorporation of radio labeled phosphate from [γ-33P]ATP into FSBA-modified wild-type MEK, 4 μM ATP, 20 nM V600E full-length B-Raf, 60-minute incubation, 22° C., read-out: BRAF V600E IC50.

The structures appear in SMILES notation. Read-outs that look alike come from different tables or passages of the source.

T1 sequence (P15056 whole entry V600E): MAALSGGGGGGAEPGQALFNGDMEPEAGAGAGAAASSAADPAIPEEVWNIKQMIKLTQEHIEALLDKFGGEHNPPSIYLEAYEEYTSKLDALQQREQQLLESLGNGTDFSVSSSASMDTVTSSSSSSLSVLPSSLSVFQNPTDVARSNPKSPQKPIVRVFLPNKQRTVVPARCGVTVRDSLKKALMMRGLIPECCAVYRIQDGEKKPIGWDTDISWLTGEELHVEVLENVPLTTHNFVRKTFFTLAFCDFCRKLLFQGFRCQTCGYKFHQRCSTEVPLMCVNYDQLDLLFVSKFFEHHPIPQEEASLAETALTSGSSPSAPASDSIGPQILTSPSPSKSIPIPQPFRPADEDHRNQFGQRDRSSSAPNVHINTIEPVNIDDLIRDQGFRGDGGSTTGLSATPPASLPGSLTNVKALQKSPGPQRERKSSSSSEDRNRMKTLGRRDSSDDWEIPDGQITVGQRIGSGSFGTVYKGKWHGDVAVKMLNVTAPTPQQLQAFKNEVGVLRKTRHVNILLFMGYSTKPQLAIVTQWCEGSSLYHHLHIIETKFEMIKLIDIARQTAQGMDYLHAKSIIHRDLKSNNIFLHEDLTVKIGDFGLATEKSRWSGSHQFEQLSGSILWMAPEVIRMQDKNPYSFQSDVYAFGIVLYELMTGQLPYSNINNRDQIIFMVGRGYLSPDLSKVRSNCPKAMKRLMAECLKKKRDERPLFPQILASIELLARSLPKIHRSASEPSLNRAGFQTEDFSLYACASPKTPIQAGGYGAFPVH

Broadly, the IC50 is the point on the concentration scale where inhibition reaches its midpoint. With `CCCS(=O)(=O)Nc1ccc(F)c(NC(=O)c2csc3c(Nc4ccccn4)ncnc23)c1F` [Example 62, 4-(Pyridin-2-ylamino)-thieno[3,2-d] pyrimidine-7-carboxylic acid [2,6-difluoro-3-(propane-1-sulfonylamino)-phenyl]-amide], the IC50 under setting [1] is < 100 nM, the half-maximal inhibitory concentration (IC50) under setting [2] was < 1000 nM and the IC50 under setting [3] worked out at 27.1 nM.
The corresponding values for `CCCS(=O)(=O)Nc1ccc(F)c(NC(=O)c2nsc3c(N)ncnc23)c1F` [Example 30, 7-Amino-isothiazolo[4,5-d]pyrimidine-3-carboxylic acid [2,6-difluoro-3-(propane-1-sulfonylamino)-phenyl]-amide] are < 100 nM, < 1000 nM and 1.2 nM.
Regarding `CCCS(=O)(=O)Nc1ccc(Cl)c(NC(=O)c2csc3c(NCCF)ncnc23)c1Cl` [Example 74, 4-(2-Fluoro-ethylamino)-thieno[3,2-d] pyrimidine-7-carboxylic acid [2,6-dichloro-3-(propane-1-sulfonyl-amino)-phenyl]amide], the IC50 reads like this: under setting [1], < 100 nM; under setting [2], < 1000 nM; under setting [3], 0.5 nM.
The matching figures for `CCCS(=O)(=O)Nc1ccc(F)c(NC(=O)c2csc3c(C(F)F)ncnc23)c1F` [Example 42, 4-Difluoromethyl-thieno[3,2-d]pyrimidine-7-carboxylic acid [2,6-difluoro-3-(propane-1-sulfonylamino)-phenyl]-amide]: < 100 nM, < 1000 nM and 26 nM.
The matching figures for `CCCS(=O)(=O)Nc1ccc(Cl)c(NC(=O)c2csc3c(NC#N)ncnc23)c1Cl` [Example 73, 4-Cyano-amino-thieno[3,2-d] pyrimidine-7-carboxylic acid [2,6-dichloro-3-(propane-1-sulfonyl-amino)-phenyl]amide]: < 100 nM, < 1000 nM and 14 nM.
The corresponding values for `CCCS(=O)(=O)Nc1ccc(F)c(NC(=O)c2csc3c(NCCF)ncnc23)c1F` [Example 52, 4-(2-Fluoro-ethylamino)-thieno[3,2-d] pyrimidine-7-carboxylic acid [2,6-difluoro-3-(propane-1-sulfonylamino)-phenyl]-amide] are < 100 nM, < 1000 nM and 15.7 nM.
`CCCS(=O)(=O)Nc1cc(F)c(F)c(NC(=O)c2csc3c(NC4COC4)ncnc23)c1F` [Example 87, 4-(Oxetan-3-ylamino)-thieno[3,2-d] pyrimidine-7-carboxylic acid [2,3,6-trifluoro-5-(propane-1-sulfonyl-amino)-phenyl]amid]: the IC50 runs as follows: under setting [1], < 100 nM; under setting [2], < 1000 nM; under setting [3], 15.1 nM.
Consider `CCCS(=O)(=O)Nc1ccc(Cl)c(NC(=O)c2csc3c(NC4CCNCC4)ncnc23)c1Cl` [Example 79, 4-(Piperidin-4-ylamino)-thieno[3,2-d] pyrimidine-7-carboxylic acid [2,6-dichloro-3-(propane-1-sulfonyl-amino)-phenyl]amide], for which the half-maximal inhibitory concentration (IC50) reads like this: under setting [2], < 1000 nM; under setting [3], 159 nM.
For `CCCS(=O)(=O)Nc1ccc(F)c(NC(=O)c2csc3c(NCC4CC4)ncnc23)c1F` [Example 56, 4-(Cyclopropyl-methylamino)-thieno[3,2-d] pyrimidine-7-carboxylic acid [2,6-difluoro-3-(propane-1-sulfonylamino)-phenyl]-amide], the half-maximal inhibitory concentration (IC50) is, setting by setting: under setting [1], < 100 nM; under setting [2], < 1000 nM; under setting [3], 75.1 nM.
The corresponding values for `CCCS(=O)(=O)Nc1cccc(NC(=O)c2csc3c(N)ncnc23)c1Cl` [Example 25, 4-Amino-thieno[3,2-d]pyrimidine-7-carboxylic acid[2-chloro-3-(propane-1-sulfonylamino)-phenyl]-amide] are < 100 nM, < 1000 nM and 7.2 nM.
